Key:
CYP2C9 = biological target: T1, CYP2C9 (Homo sapiens, UniProt P11712); experiment: Biological Test Example 7: CYP2C9 inhibition (naproxen O-demethylation); type: in vitro ADME
T1 construct: purchased Invitrogen 2859; host or cells: insect cells infected with baculovirus (microsomes)

CYP2C19 = CYP2C19 (Homo sapiens, UniProt P33261); experiment: Biological Test Example 8: CYP2C19 inhibition (diazepam N-demethylation); type: in vitro ADME
CYP3A4 = CYP3A4 (Homo sapiens, UniProt P08684); experiment: Biological Test Example 6: CYP3A4 inhibition (erythromycin N-demethylation); type: in vitro ADME
11β-HSD1 [1] = biological target: T2, 11β-HSD1 (Homo sapiens, UniProt P28845); experiment: biochemical; settings: for inhibition at 0.1 µM: read-out: Average % inhibition at 100 nM
11β-HSD1 [2] = biological target: T2, 11β-HSD1; experiment: Biological Test Example 4: microsomal 11β-HSD1 in the presence of 50% human plasma; settings: for Shift: IC50 in Test Example 4 divided by IC50 in Test Example 1
[3] = Biological Test Example 1 IC50 (nM)
[4] = IC50 Range, Biological Test Example 1

T1 sequence (P11712 whole entry): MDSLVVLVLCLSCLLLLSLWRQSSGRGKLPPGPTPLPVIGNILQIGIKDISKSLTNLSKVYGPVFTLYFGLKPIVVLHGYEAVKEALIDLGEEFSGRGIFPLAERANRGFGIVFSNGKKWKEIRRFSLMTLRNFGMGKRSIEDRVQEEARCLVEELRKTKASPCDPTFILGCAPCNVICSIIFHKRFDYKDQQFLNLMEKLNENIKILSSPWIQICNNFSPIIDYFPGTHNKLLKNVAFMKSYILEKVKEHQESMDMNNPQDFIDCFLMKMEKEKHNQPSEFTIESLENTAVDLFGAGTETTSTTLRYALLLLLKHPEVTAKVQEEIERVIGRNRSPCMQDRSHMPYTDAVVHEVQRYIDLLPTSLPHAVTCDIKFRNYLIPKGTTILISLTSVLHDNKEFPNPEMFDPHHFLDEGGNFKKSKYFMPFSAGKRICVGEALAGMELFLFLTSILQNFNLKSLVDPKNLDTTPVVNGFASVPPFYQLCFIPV
T2 sequence (P28845 whole entry): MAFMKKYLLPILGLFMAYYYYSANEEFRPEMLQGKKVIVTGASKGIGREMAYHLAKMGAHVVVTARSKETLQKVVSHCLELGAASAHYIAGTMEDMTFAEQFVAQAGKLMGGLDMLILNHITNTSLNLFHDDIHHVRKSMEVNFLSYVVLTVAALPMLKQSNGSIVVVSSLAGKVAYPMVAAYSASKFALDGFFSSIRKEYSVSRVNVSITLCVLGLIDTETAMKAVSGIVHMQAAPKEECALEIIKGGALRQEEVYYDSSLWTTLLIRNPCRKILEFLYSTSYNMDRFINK
Sequence of CYP3A4 (P08684 whole entry): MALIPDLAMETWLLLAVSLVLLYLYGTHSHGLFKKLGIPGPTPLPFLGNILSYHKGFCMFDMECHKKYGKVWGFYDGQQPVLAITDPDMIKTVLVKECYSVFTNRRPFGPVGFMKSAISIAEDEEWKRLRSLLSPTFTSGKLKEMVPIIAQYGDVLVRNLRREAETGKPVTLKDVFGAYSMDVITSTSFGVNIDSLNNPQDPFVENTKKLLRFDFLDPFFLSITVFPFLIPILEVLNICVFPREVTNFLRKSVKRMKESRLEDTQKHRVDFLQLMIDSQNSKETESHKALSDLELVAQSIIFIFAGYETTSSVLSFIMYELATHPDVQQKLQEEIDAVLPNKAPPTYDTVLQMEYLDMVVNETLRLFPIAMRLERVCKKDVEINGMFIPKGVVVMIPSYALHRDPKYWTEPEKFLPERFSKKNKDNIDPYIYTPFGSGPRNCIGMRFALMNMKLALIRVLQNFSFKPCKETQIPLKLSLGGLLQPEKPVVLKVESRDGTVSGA
Sequence of CYP2C19 (P33261 whole entry): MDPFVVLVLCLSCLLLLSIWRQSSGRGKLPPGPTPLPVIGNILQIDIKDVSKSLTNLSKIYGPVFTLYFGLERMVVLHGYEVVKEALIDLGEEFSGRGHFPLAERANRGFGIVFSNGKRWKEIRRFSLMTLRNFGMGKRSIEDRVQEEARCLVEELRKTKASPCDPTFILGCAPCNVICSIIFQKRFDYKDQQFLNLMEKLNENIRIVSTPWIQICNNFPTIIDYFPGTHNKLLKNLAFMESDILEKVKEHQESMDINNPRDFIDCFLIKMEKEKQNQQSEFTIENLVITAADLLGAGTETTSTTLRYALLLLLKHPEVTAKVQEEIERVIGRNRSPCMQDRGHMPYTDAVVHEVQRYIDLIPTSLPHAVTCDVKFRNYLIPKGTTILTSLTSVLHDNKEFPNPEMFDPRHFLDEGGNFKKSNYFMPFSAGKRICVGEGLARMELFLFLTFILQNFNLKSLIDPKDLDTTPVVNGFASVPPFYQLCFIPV

SMILES	IC50 (CYP2C9) [µM]	IC50 (CYP2C19) [µM]	IC50 (CYP3A4) [µM]	IC50 (11β-HSD1 [1]; [3]) [nM]	IC50 (11β-HSD1 [1]; [4]) [nM]	inhibition at 0.1 µM (11β-HSD1 [1]) [%]	IC50 (11β-HSD1 [2]) [µM]	Shift (11β-HSD1 [2])
C[C@@H](c1ccc(-c2ccc(C(=O)NC3CC3)nn2)cc1)N1CC[C@](CC(C)(C)C#N)(c2ccccc2)OC1=O [EXAMPLE 11, 6-(4-((S)-1-((R)-6-(2-cyano-2-methylpropyl)-2-oxo-6-phenyl-1,3-oxazinan-3-yl)ethyl)phenyl)-N-cyclopropylpyridazine-3-carboxamide]	> 50	3.7	8.7	1	< 100	91.6	0.0034	3.5
C[C@@H](c1ccc(-c2ccc(C(=O)NC3CC3)nn2)cc1)N1CC[C@](CC(C)(C)O)(c2ccccc2)OC1=O [EXAMPLE 10, N-cyclopropyl-6-(4-((S)-1-((S)-6-(2-hydroxy-2-methylpropyl)-2-oxo-6-phenyl-1,3-oxazinan-3-yl)ethyl)phenyl)pyridazine-3-carboxamide]	21.2	14.5	34.9	2.5	< 100	93.6	0.0075	–
C[C@@H](c1ccc(-c2cnc(C(=O)NC(C)(C)C)nc2)cc1)N1CC[C@](CC(C)(C)O)(c2ccccc2)OC1=O [EXAMPLE 17, N-tert-butyl-5-(4-((S)-1-((S)-6-(2-hydroxy-2-methylpropyl)-2-oxo-6-phenyl-1,3-oxazinan-3-yl)ethyl)phenyl)pyrimidine-2-carboxamide]	17.8	5.9	45.3	2.2	< 100	94	0.0057	2.5
C[C@@H](c1ccc(-c2ccc(C(=O)NC(C)(C)C)nn2)cc1)N1CC[C@](CC(C)(C)C#N)(c2ccccc2)OC1=O [EXAMPLE 9, N-tert-butyl-6-(4-((S)-1-((R)-6-(2-cyano-2-methylpropyl)-2-oxo-6-phenyl-1,3-oxazinan-3-yl)ethyl)phenyl)pyridazine-3-carboxamide]	> 50	0.8	48.9	1.3	< 100	92.4	0.0051	3.9
Cc1ccc(-c2ccc([C@H](C)N3CC[C@](CC(C)(C)O)(c4ccc(F)cc4)OC3=O)cc2)nn1 [EXAMPLE 155, (S)-6-(4-fluorophenyl)-6-(2-hydroxy-2-methylpropyl)-3-((S)-1-(4-(6-methylpyridazin-3-yl)phenyl)ethyl)-1,3-oxazinan-2-one]	38.9	> 50	> 50	2.1	< 100	94.7	0.0064	3.0
Cc1nccc(-c2ccc([C@H](C)N3CC[C@](CC(C)(C)O)(c4ccccc4)OC3=O)cc2)n1 [EXAMPLE 135, (S)-6-(2-hydroxy-2-methylpropyl)-3-((S)-1-(4-(2-methylpyrimidin-4-yl)phenyl)ethyl)-6-phenyl-1,3-oxazinan-2-one]	44.4	35.8	22.8	1.8	< 100	97.3	0.0054	3.1
C[C@@H](c1ccc(-c2ccc(S(C)(=O)=O)cn2)cc1)N1CC[C@](CC(C)(C)O)(c2ccccc2)OC1=O [EXAMPLE 186, (S)-6-(2-Hydroxy-2-methyl-propyl)-3-{(S)-1-[4-(5-methanesulfonyl-pyridin-2-yl)-phenyl]-ethyl}-6-phenyl-[1,3]oxazinan-2-one]	> 50	48.6	> 50	0.9	< 100	95.2	–	–
C[C@@H](c1ccc(-c2cnn(C)c2)cc1)N1CC[C@](CC(C)(C)O)(c2ccccc2)OC1=O [EXAMPLE 178, (S)-6-(2-Hydroxy-2-methyl-propyl)-3-{(S)-1-[4-(1-methyl-1H-pyrazol-4-yl)-phenyl]-ethyl}-6-phenyl-[1,3]oxazinan-2-one]	21.3	> 50	> 50	–	–	–	–	–
COC[C@]1(c2ccccc2)CCN([C@@H](C)c2ccc(-c3ccc(C)nn3)cc2)C(=O)O1 [EXAMPLE 167, (R)-6-(methoxymethyl)-3-((S)-1-(4-(6-methylpyridazin-3-yl)phenyl)ethyl)-6-phenyl-1,3-oxazinan-2-one]	29.5	26.1	46.7	–	–	–	–	–
CCNC(=O)c1ccc(-c2ccc([C@H](C)N3CC[C@](CC(C)(C)O)(c4ccccc4)OC3=O)cc2)cn1 [EXAMPLE 168, 5-(4-{(S)-1-[(S)-6-(2-Hydroxy-2-methyl-propyl)-2-oxo-6-phenyl-[1,3]oxazinan-3-yl]-ethyl}-phenyl)-pyridine-2-carboxylic acid ethylamide]	15.1	7.9	16.8	–	–	–	–	–
C[C@@H](c1ccc(-c2ccc(S(C)(=O)=O)nc2)cc1)N1CC[C@](CC(C)(C)O)(c2ccccc2)OC1=O [EXAMPLE 183, (S)-6-(2-Hydroxy-2-methyl-propyl)-3-{(S)-1-[4-(6-methanesulfonyl-pyridin-3-yl)-phenyl]-ethyl}-6-phenyl-[1,3]oxazinan-2-one]	45.7	47.4	> 50	0.93	< 100	96.4	–	–
C[C@@H](c1ccc(-c2ccc(C(=O)N(C)C)nc2)cc1)N1CC[C@](CC(C)(C)O)(c2ccccc2)OC1=O [EXAMPLE 170]	48.6	39.4	45.6	–	–	–	–	–
C[C@@H](c1ccc(-c2cscn2)cc1)N1CC[C@](CC(C)(C)O)(c2ccccc2)OC1=O [EXAMPLE 175, (S)-6-(2-Hydroxy-2-methyl-propyl)-6-phenyl-3-[(S)-1-(4-thiazol-4-yl-phenyl)-ethyl]-[1,3]oxazinan-2-one]	29.8	1.8	9.7	–	–	–	–	–
C[C@@H](c1ccc(-c2cncc(S(C)(=O)=O)c2)cc1)N1CC[C@](CC(C)(C)O)(c2ccccc2)OC1=O [EXAMPLE 188, (S)-6-(2-Hydroxy-2-methyl-propyl)-3-{(S)-1-[4-(5-methanesulfonyl-pyridin-3-yl)-phenyl]-ethyl}-6-phenyl-[1,3]oxazinan-2-one]	21.2	> 50	42.4	–	–	–	–	–
C[C@@H](c1ccc(-c2cc(S(C)(=O)=O)ccn2)cc1)N1CC[C@](CC(C)(C)O)(c2ccccc2)OC1=O [EXAMPLE 185, (S)-6-(2-Hydroxy-2-methyl-propyl)-3-{(S)-1-[4-(4-methanesulfonyl-pyridin-2-yl)-phenyl]-ethyl}-6-phenyl-[1,3]oxazinan-2-one]	30	25.7	42.9	–	–	–	–	–
C[C@@H](c1ccc(-c2ccc([S+](C)[O-])nc2)cc1)N1CC[C@](CC(C)(C)O)(c2ccccc2)OC1=O (stereo partly drawn) [EXAMPLE 182, (S)-6-(2-Hydroxy-2-methyl-propyl)-3-{(S)-1-[4-(6-methanesulfinyl-pyridin-3-yl)-phenyl]-ethyl}-6-phenyl-[1,3]oxazinan-2-one]	> 50	> 50	> 50	–	–	–	–	–
C[C@@H](c1ccc(-c2cccc(S(C)(=O)=O)n2)cc1)N1CC[C@](CC(C)(C)O)(c2ccccc2)OC1=O [EXAMPLE 190, (S)-6-(2-Hydroxy-2-methyl-propyl)-3-{(S)-1-[4-(6-methanesulfonyl-pyridin-2-yl)-phenyl]-ethyl}-6-phenyl-[1,3]oxazinan-2-one]	> 50	> 50	33.7	–	–	–	–	–
CNC(=O)c1ccc(-c2ccc([C@H](C)N3CC[C@](CC(C)(C)O)(c4ccccc4)OC3=O)cc2)cn1 [EXAMPLE 169, 5-(4-{(S)-1-[(S)-6-(2-Hydroxy-2-methyl-propyl)-2-oxo-6-phenyl-[1,3]oxazinan-3-yl]-ethyl}-phenyl)-pyridine-2-carboxylic acid methylamide]	45.2	5.9	28.4	–	–	–	–	–
Cc1nc(-c2ccc([C@H](C)N3CC[C@](CC(C)(C)O)(c4ccccc4)OC3=O)cc2)sc1C [EXAMPLE 181, (S)-3-{1-[4-(4,5-Dimethyl-thiazol-2-yl)-phenyl]-ethyl}-6-(2-hydroxy-2-methyl-propyl)-6-phenyl-[1,3]oxazinan-2-one]	5.6	8.2	7.8	–	–	–	–	–
Cc1ncc(-c2ccc([C@H](C)N3CC[C@](CC(C)(C)O)(c4ccccc4)OC3=O)cc2)s1 [EXAMPLE 180, (S)-6-(2-Hydroxy-2-methyl-propyl)-3-{(S)-1-[(2-methyl-4-thiazol-5-yl)-phenyl]-ethyl}-6-phenyl-[1,3]oxazinan-2-one]	9.2	14.4	9.8	–	–	–	–	–
C[C@@H](c1ccc(-c2ncc(C(=O)NC3CC3)s2)cc1)N1CC[C@](CC(C)(C)O)(c2ccccc2)OC1=O [EXAMPLE 20, N-cyclopropyl-2-(4-((S)-1-((S)-6-(2-hydroxy-2-methylpropyl)-2-oxo-6-phenyl-1,3-oxazinan-3-yl)ethyl)phenyl)thiazole-5-carboxamide]	15.4	47.7	49.8	–	–	–	–	–
Cc1nn(C)c(C)c1-c1ccc([C@H](C)N2CC[C@](CC(C)(C)O)(c3ccccc3)OC2=O)cc1 [EXAMPLE 177, (S)-6-(2-Hydroxy-2-methyl-propyl)-6-phenyl-3-{(S)-1-[4-(1,3,5-trimethyl-1H-pyrazol-4-yl)-phenyl]-ethyl}-[1,3]oxazinan-2-one]	8.8	17.7	> 50	–	–	–	–	–
C[C@@H](c1ccc(-c2cncs2)cc1)N1CC[C@](CC(C)(C)O)(c2ccccc2)OC1=O [EXAMPLE 171, (S)-6-(2-Hydroxy-2-methyl-propyl)-6-phenyl-3-[(S)-1-(4-thiazol-5-yl-phenyl)-ethyl]-[1,3]oxazinan-2-one]	9.2	0.8	< 0.4	–	–	–	–	–

— patent US8569292B2, “Cyclic inhibitors of 11β-hydroxysteroid dehydrogenase 1” (Vitae Pharmaceuticals, Inc., priority 2008, dated 2013)
